Legend:
[1] = molecular target: T1, cholesterol side-chain cleaving enzyme (Sus scrofa, UniProt P10612); test: Inhibitory activity against cholesterol side-chain cleaving enzyme (Pharmacological Test 2, porcine adrenal mitochondria); type: biochemical; settings: substrate 5-cholesten-3β-ol 5.0×10^-6 M, read-out: SCC-IC50
T1 construct: porcine adrenal mitochondria; from tissue; host or cells: porcine adrenal mitochondria
T1 sequence (P10612 40-520): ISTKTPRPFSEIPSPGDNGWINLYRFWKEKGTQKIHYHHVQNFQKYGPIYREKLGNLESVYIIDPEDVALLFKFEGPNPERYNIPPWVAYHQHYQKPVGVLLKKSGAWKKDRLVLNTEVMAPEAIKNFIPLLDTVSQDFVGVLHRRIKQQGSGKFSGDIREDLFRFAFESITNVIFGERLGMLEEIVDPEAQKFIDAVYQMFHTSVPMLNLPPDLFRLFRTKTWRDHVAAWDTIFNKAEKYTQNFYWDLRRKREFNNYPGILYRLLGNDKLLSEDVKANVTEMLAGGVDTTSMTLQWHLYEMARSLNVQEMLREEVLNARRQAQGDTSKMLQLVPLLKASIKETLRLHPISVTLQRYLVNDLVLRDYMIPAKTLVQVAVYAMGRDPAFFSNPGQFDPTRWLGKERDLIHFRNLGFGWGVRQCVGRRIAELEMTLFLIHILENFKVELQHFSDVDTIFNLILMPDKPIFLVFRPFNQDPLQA
Method: Inhibitory activity against cholesterol side-chain cleaving enzyme was determined according to the method of M. Shikita and P. F. Hall [Proc. Nat. […] Briefly, the each compound to be tested was added to a reaction vial containing porcine adrenal mitochondria, [4-^14 C]5-cholesten-3β-ol (250 Bq/5 nmol) and NADPH. […] These were separated by extracting the reaction mixture with methylene-dichloride followed by purifying with thin-layer chromatography. Substrate (5-cholesten-3β-ol) and reaction product (3β-hydroxypregn-5-en-20-one) were respectively measured by a liquid scintillation counter. The measured quantity of 3β-hydroxypregn-5-en-20-one was used to determine cholesterol side-chain cleaving activity which was compared with the activity when incubated without inhibitor to calculate inhibition ratio (%).

[2] = molecular target: T2, Aromatase (Homo sapiens, UniProt P11511); test: Aromatase inhibitory activity (Pharmacological Test 1, human placenta microsome); type: biochemical; settings: substrate 4-androsten-3,17-dione 1.0×10^-6 M, read-out: AI-IC50
T2 construct: human placenta microsome; from tissue; host or cells: human placenta microsomes
T2 sequence (P11511 1-503): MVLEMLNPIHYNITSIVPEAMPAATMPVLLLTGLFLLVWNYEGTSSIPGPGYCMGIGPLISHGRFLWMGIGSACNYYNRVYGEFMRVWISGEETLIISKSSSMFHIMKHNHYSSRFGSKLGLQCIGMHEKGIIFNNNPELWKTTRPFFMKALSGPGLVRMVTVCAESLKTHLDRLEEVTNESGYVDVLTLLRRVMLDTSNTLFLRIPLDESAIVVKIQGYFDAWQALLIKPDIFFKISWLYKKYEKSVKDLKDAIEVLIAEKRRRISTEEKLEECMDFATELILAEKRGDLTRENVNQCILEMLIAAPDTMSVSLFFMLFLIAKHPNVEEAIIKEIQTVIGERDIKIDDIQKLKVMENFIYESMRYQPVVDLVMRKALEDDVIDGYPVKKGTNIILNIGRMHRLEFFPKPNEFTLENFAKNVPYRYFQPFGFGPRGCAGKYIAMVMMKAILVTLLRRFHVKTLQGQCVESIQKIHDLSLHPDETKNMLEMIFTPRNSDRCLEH
Method: Aromatase inhibitory activity was determined according to the method of E. A. Thompson and P. K. Siiteri [J. Biol. Chem., 249, 5364-5372 (1974)]. The each compound to be tested was added to a reaction vial containing human placenta microsome, [1β,2 β-^3 H]4-androsten-3,17-dione (3.3 kBq/500 pmol) and NADPH. […] The obtained [^3 H]H2 O was measured by a liquid scintillation counter. The measured quantity of [3H]H20 was used to determine aromatase activity, and was compared with the activity when incubated without inhibitor to calculate inhibition ratio (%).

SMILES	IC50 [1]	IC50 [2]
CCC1(c2ccc(N)cc2)CCC(=O)NC1=O (centres unmarked) [AG, aminoglutethimide, reference compound]	66000 nM	
CN(C)c1nc(N2CCOCC2)nc(-n2ccnc2)n1 [Compound 1, 2-(1-Imidazolyl)-4-dimethylamino-6-morpholino-1,3,5-triazine]	> 100000 nM	10 nM
CN(C)c1nc(N2CCCC2)nc(-n2ccnc2)n1 [Compound 2, 2-(1-Imidazolyl)-4-dimethylamino-6-(1-pyrrolidinyl)-1,3,5-triazine]	> 100000 nM	1300 nM
CN(C)c1nc(N2CCCCC2)nc(-n2ccnc2)n1 [Compound 3, 2-(1-Imidazolyl)-4-dimethylamino-6-piperidino-1,3,5-triazine]	> 100000 nM	770 nM
Cc1ncn(-c2nc(N(C)C)nc(-n3ccnc3)n2)c1C [Compound 5, 2-(1-Imidazolyl)-4-dimethylamino-6-(4,5-dimethyl-1-imidazolyl)-1,3,5-triazine]	> 100000 nM	200 nM
CC(C)c1nccn1-c1nc(N(C)C)nc(-n2ccnc2)n1 [Compound 6, 2-(1-Imidazolyl)-4-(2-isopropyl-1-imidazolyl)-6-dimethylamino-1,3,5-triazine]	> 100000 nM	4300 nM
c1ccc(N2CCN(c3nc(N4CCOCC4)nc(-n4ccnc4)n3)CC2)nc1 [Compound 8, 2-(1-Imidazolyl)-4-morpholino-6-[4-(2-pyridyl)-1-piperazinyl]-1,3,5-triazine]	54000 nM	11 nM
c1ccc(CN2CCN(c3nc(N4CCOCC4)nc(-n4ccnc4)n3)CC2)cc1 [Compound 9, 2-(4-Benzyl-1-piperazinyl)-4-(1-imidazolyl)-6-morpholino-1,3,5-triazine]	15000 nM	17 nM
CC1CN(c2nc(N3CCOCC3)nc(-n3ccnc3)n2)CC(C)O1 (centres unmarked) [Compound 10, 2-(1-Imidazolyl)-4-(2,6-dimethylmorpholino)-6-morpholino-1,3,5-triazine]	> 100000 nM	31 nM
CC1CC(C)CN(c2nc(N3CCOCC3)nc(-n3ccnc3)n2)C1 (centres unmarked) [Compound 11, 2-(1-Imidazolyl)-4-(3,5-dimethylpiperidino)-6-morpholino-1,3,5-triazine]	19000 nM	11 nM
c1cn(-c2nc(N3CCOCC3)nc(N3CCC4(CC3)OCCO4)n2)cn1 [Compound 12, 2-(4,4-Ethylenedioxypiperidino)-4-(1-imidazolyl)-6-morpholino-1,3,5-triazine]	> 100000 nM	24 nM
CN(c1ccccc1)c1nc(N2CCOCC2)nc(-n2ccnc2)n1 [Compound 14, 2-(1-Imidazolyl)-4-(N-methyl-N-phenylamino)-6-morpholino-1,3,5-triazine]	31000 nM	6.7 nM
c1cn(-c2nc(N3CCCC3)nc(N3CCCC3)n2)cn1 [Compound 17, 2-(1-Imidazolyl)-4,6-bis(1-pyrrolidinyl)-1,3,5-triazine]	> 100000 nM	310 nM
c1cn(-c2nc(N3CCCCC3)nc(N3CCCCC3)n2)cn1 [Compound 18, 2-(1-Imidazolyl)-4,6-dipiperidino-1,3,5-triazine]	> 100000 nM	310 nM
c1cn(-c2nc(N3CCSCC3)nc(N3CCSCC3)n2)cn1 [Compound 21, 2-(1-Imidazolyl)-4,6-bis(thiomorpholino)-1,3,5-triazine]	100000 nM	5.1 nM
c1cn(-c2nc(N3CCOCC3)nc(-n3ccnc3)n2)cn1 [Compound 23, 2,4-Bis(1-imidazolyl)-6-morpholino-1,3,5-triazine]	> 100000 nM	21 nM

SMILES	IC50 [1]	IC50 [2]
CN(C)c1nc(-n2ccnc2)nc(-n2ccnc2)n1 [Compound 24, 2,4-Bis(1-imidazolyl)-6-dimethylamino-1,3,5-triazine]	80000 nM	550 nM
CCN(CC)c1nc(-n2ccnc2)nc(-n2ccnc2)n1 [Compound 25, 2,4-Bis(1-imidazolyl)-6-diethylamino-1,3,5-triazine]	25000 nM	60 nM
c1cn(-c2nc(N3CCCC3)nc(-n3ccnc3)n2)cn1 [Compound 26, 2,4-Bis(1-imidazolyl)-6-(1-pyrrolidinyl)-1,3,5-triazine]	> 100000 nM	62 nM
c1cn(-c2nc(N3CCCCC3)nc(-n3ccnc3)n2)cn1 [Compound 27, 2,4-Bis(1-imidazolyl)-6-piperidino-1,3,5-triazine]	> 100000 nM	64 nM
c1ccc(C2CCN(c3nc(-n4ccnc4)nc(-n4ccnc4)n3)CC2)cc1 [Compound 28, 2,4-Bis(1-imidazolyl)-6-(4-phenylpiperidino)-1,3,5-triazine]	9500 nM	62 nM
CN1CCN(c2nc(-n3ccnc3)nc(-n3ccnc3)n2)CC1 [Compound 29, 2,4-Bis (1-imidazolyl)-6-(4-methyl-1-piperazinyl)-1,3,5-triazine]	75000 nM	230 nM
c1ccc(N2CCN(c3nc(-n4ccnc4)nc(-n4ccnc4)n3)CC2)cc1 [Compound 30, 2,4-Bis(1-imidazolyl)-6-(4-phenyl-1-piperazinyl)-1,3,5-triazine]	65000 nM	220 nM
c1cn(-c2nc(N3CCSCC3)nc(-n3ccnc3)n2)cn1 [Compound 31, 2,4-Bis (1-imidazolyl)-6-thiomorpholino-1,3,5-triazine]	> 100000 nM	43 nM
CN(c1ccccc1)c1nc(-n2ccnc2)nc(-n2ccnc2)n1 [Compound 32, 2,4-Bis(1-imidazolyl)-6-(N-methyl-N-phenylamino)-1,3,5-triazine]	16000 nM	29 nM
CCCCN(CCCC)c1nc(-n2ccnc2)nc(-n2ccnc2)n1 [Compound 36, 2-(Di-n-butylamino)-4,6-bis(1-imidazolyl)-1,3,5-triazine]	12000 nM	14 nM
c1ccc(C2CCN(c3nc(N4CCSCC4)nc(-n4ccnc4)n3)CC2)cc1 [Compound 39, 2-(1-Imidazolyl)-4-(4-phenylpiperidino)-6-thiomorpholino-1,3,5-triazine]	37000 nM	20 nM
CCOC(=O)C1CCN(c2nc(N3CCOCC3)nc(-n3ccnc3)n2)CC1 [Compound 40, 2-(4-Ethoxycarbonylpiperidino)-4-(1-imidazolyl)-6-morpholino-1,3,5-triazine]	66000 nM	24 nM
CC(C)(C)OC(=O)C1CCCN1c1nc(N2CCOCC2)nc(-n2ccnc2)n1 (centres unmarked) [Compound 41, 2-(2-tert-Butoxycarbonyl-1-pyrrolidinyl)-4-(1-imidazolyl)-6-morpholino-1,3,5-triazine]	> 100000 nM	37 nM
CC1CN1c1nc(N2CCOCC2)nc(-n2ccnc2)n1 (centres unmarked) [Compound 42, 2-(1-Imidazolyl)-4-(2-methyl-1-aziridinyl)-6-morpholino-1,3,5-triazine]	> 100000 nM	57 nM
Fc1ccc(N2CCN(c3nc(N4CCOCC4)nc(-n4ccnc4)n3)CC2)cc1 [Compound 43, 2-[4-(4-Fluorophenyl)-1-piperazinyl]-4-(1-imidazolyl)-6-morpholino-1,3,5-triazine]	> 100000 nM	20 nM
CN(C)c1nc(N(C)C)nc(N(C)C)n1 [HMM, hexamethylmelamine, reference compound]	> 100000 nM	
